Laboratory results from ChEMBL document CHEMBL1154419, “Pharmacodynamic effects of telavancin against methicillin-resistant and methicillin-susceptible Staphylococcus aureus strains in the presence of human albumin or serum and in an in vitro kinetic model” (Antimicrob Agents Chemother, 2007).

System: Staphylococcus aureus
Assay: Antibacterial activity against methicillin-resistant Staphylococcus aureus COL infected New Zealand white rabbit endocarditis model assessed as reduction in mean aortic vegetation titer at 30 mg/kg, iv twice daily after 4 days
Assay type: functional, Aorta

SMILES: CN[C@H](CC(C)C)C(=O)N[C@H]1C(=O)N[C@@H](CC(N)=O)C(=O)N[C@H]2C(=O)N[C@H]3C(=O)N[C@H](C(=O)N[C@H](C(=O)O)c4cc(O)cc(O)c4-c4cc3ccc4O)[C@H](O)c3ccc(c(Cl)c3)Oc3cc2cc(c3O[C@@H]2O[C@H](CO)[C@@H](O)[C@H](O)[C@H]2O[C@H]2C[C@](C)(N)[C@H](O)[C@H](C)O2)Oc2ccc(cc2Cl)[C@H]1O [VANCOMYCIN]
- log10CFU/g: 3.4
